What all share (type): cell-based
For assay [1], the target named is dopamine transporter (DAT) (Homo sapiens, UniProt Q01959). The assay can be described thus: [3H]DA uptake inhibition at the dopamine transporter. Conditions: read-out: [3H]DA uptake, Ki ± SE. The source says: (§1) These novel ligands have been tested for their binding affinity at the DAT as well as for the inhibition of reuptake of NE, 5-HT, and DA at their specific transporters.

For assay [2], the target named is norepinephrine transporter (NET) (Homo sapiens, UniProt P23975). Briefly: [3H]NE uptake inhibition at the norepinephrine transporter. Conditions: for NE/5-HT ratio / NE/DA ratio: ratio of uptake Ki; for NE/5-HT ratio: NE vs 5-HT; for NE/DA ratio: NE vs DA; for Ki: read-out: [3H]NE uptake, Ki ± SE.
norepinephrine transporter (NET), sequence (P23975 whole entry, species assumed): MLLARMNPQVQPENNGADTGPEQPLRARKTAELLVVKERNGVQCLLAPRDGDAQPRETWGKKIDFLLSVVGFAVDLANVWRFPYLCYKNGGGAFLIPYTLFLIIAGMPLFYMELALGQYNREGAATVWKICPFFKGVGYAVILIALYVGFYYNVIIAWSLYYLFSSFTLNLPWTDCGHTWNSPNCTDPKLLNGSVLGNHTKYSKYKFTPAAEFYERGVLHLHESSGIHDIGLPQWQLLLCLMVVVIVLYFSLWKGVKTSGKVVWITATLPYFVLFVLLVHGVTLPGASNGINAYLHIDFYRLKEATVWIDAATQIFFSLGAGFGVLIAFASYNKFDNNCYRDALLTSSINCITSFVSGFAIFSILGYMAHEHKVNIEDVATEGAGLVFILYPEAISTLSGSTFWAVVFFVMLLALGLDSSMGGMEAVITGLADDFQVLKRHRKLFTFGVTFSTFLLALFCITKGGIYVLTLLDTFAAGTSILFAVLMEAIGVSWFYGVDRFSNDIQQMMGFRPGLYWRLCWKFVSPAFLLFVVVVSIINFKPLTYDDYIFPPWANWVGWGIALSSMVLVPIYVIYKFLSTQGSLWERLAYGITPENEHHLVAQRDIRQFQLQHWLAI
Source text: as §1

The target of assay [3] is serotonin transporter (5-HTT) (Homo sapiens, UniProt P31645). Briefly: [3H]5-HT uptake inhibition at the serotonin transporter. Particulars: for 5-HT/DA ratio: ratio of uptake Ki, 5-HT vs DA; for Ki: read-out: [3H]5-HT uptake, Ki ± SE; for higher activity at 5-HTT vs. DAT: selectivity 5-HTT vs DAT.
serotonin transporter (5-HTT), sequence (P31645 whole entry, species assumed): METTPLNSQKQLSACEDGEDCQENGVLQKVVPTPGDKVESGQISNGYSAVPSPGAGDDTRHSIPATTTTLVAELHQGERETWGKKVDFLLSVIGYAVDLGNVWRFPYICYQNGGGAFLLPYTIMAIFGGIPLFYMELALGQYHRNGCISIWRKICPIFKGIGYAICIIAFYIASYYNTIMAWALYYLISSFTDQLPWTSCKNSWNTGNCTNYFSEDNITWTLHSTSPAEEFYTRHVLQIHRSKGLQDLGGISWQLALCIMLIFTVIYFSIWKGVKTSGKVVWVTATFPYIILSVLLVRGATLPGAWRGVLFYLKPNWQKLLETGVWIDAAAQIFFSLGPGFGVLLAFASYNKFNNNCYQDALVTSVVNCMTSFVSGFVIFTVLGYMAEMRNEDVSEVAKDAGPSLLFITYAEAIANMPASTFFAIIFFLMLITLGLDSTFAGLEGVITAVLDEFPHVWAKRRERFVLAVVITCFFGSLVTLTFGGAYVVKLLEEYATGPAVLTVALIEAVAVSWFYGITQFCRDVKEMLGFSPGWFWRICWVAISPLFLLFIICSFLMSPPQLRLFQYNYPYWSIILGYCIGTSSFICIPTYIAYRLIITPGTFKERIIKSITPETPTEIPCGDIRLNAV
Source text: as §1

dopamine transporter (DAT), sequence (Q01959 whole entry, species assumed): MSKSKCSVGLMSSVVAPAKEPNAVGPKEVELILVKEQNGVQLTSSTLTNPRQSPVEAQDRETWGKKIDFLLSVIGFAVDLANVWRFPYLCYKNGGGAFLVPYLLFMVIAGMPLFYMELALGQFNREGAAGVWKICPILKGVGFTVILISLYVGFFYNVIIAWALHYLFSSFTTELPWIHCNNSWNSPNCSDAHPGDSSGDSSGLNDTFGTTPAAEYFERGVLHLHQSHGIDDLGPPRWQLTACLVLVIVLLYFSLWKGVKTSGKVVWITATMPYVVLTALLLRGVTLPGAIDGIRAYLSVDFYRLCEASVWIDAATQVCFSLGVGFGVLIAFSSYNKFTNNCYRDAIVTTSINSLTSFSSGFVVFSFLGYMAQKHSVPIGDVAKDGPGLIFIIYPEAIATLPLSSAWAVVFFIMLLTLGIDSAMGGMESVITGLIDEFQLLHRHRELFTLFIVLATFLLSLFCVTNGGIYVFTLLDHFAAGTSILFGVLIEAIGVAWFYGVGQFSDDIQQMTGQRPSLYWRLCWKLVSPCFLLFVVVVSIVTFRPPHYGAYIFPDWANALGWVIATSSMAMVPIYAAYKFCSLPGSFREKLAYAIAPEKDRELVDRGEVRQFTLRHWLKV

On to `COC(=O)C1C2CC3CCC1N3CC2=Cc1ccccc1` (single isomer, unassigned) [5a], for which the Ki in assay [1] turned out to be 481 ± 10.8 nM. Further, in assay [2], the NE/5-HT ratio is 0.05, the NE/DA ratio stood at 0.11 and the Ki came out at 53 ± 16.1 nM. The “Ki at the 5-HTT higher than at the NET” value in assay [2] (selectivity NET vs 5-HTT) is 20 fold. Besides, the “Ki at the DAT higher than at the NET” value in assay [2] (selectivity NET vs DAT) amounted to 9 fold. In assay [3], the 5-HT/DA ratio stood at 2.36 and the Ki worked out at 1140 ± 70 nM.

In the case of `COC(=O)C1C2CC3CCC1N3CC2=Cc1ccccc1` (single isomer, unassigned) [compound 6], the Ki in assay [1] was found to be 5070 ± 310 nM. In assay [2] (NET, 5-HTT and DAT), the “activity at all three transporters” value is recorded as “only weakly active”. In assay [2], the NE/5-HT ratio is 0.2, the NE/DA ratio stood at 0.3 and the Ki worked out at 1530 ± 150 nM. In assay [3], the 5-HT/DA ratio turned out to be 1.48 and the Ki is 7480 ± 250 nM.

`COC(=O)C1C2CC3CCC1N3CC2=Cc1ccc(Cl)c(Cl)c1` (stereo not shown) [5b]: the Ki in assay [1] stood at 1920 ± 260 nM. Also, in assay [2], the NE/5-HT ratio came to 50.6, the NE/DA ratio is given as 0.52 and the Ki is 1000 ± 280 nM. Moreover, in assay [3], the 5-HT/DA ratio came to 0.01, the Ki was 19.8 ± 0.5 nM and the “higher activity at 5-HTT vs. DAT” value is listed as “about 100 fold”. In addition, the “higher activity at 5-HTT vs. the NET” value in assay [3] (selectivity 5-HTT vs NET) is “about 50 fold”.

With `COC(=O)C1C2CC3CCC1N3CC2=Cc1ccc(OC)cc1` (stereo not shown) [5c], the Ki in assay [1] was 3130 ± 160 nM. In addition, in assay [2], the NE/5-HT ratio stood at 3.37, the NE/DA ratio is listed as 0.06 and the Ki came out at 187 ± 4.6 nM. Besides, in assay [3], the 5-HT/DA ratio turned out to be 0.02, the Ki amounted to 55.7 ± 3.8 nM and the “higher activity at 5-HTT vs. DAT” value is listed as 50 fold.

Regarding `COC(=O)C1C2CC3CCC1N3CC2=Cc1ccc(F)cc1` (stereo not shown) [5d], in assay [1], the Ki turned out to be 6620 ± 460 nM. The “decrease of norepinephrine reuptake activity vs. 5a” value in assay [2] (fluoro substituent, 5d vs. 5a) is listed as “about 10 factor”. In assay [2], the NE/5-HT ratio worked out at 1.74, the NE/DA ratio is 0.09 and the Ki came out at 584 ± 163 nM. In assay [3], the 5-HT/DA ratio was found to be 0.05 and the Ki stood at 335 ± 45.5 nM.

With `COC(=O)C1C2CC3CCC1N3CC2=Cc1cccc2ccccc12` (stereo not shown) [5e], the Ki in assay [1] amounted to 9720 ± 700 nM. In addition, in assay [2], the NE/5-HT ratio came out at 44.5, the NE/DA ratio amounted to 0.55 and the Ki was 5370 ± 580 nM. Further, in assay [3], the 5-HT/DA ratio came to 0.01 and the Ki worked out at 121 ± 3.4 nM.

As for `COC(=O)C1C2CC3CCC1N3CC2=Cc1ccco1` (stereo not shown) [5f], the Ki in assay [1] was determined as 2020 ± 190 nM. In assay [2], the NE/5-HT ratio worked out at 0.03, the NE/DA ratio stood at 0.05 and the Ki was found to be 111 ± 12.7 nM. Further, in assay [3], the 5-HT/DA ratio is on record as 1.82 and the Ki turned out to be 3680 ± 190 nM.

With `COC(=O)C1C2CC3CCC1N3CC2=Cc1ccoc1` (stereo not shown) [5g], the Ki in assay [1] amounted to 1880 ± 10 nM. In assay [2], the NE/5-HT ratio is listed as 0.33, the NE/DA ratio was 0.09 and the Ki is 164 ± 2.8 nM. In assay [3], the 5-HT/DA ratio amounted to 0.26 and the Ki was found to be 498 ± 65.5 nM.
